Source: publication PMC6925188, “PBRM1 acts as a p53 lysine-acetylation reader to suppress renal tumor growth” (Nature Communications, 2019)
Where no end group is shown, it is not given here. The star is where a group is joined. Biotin = O=C1N[C@H]2[C@H](CS[C@H]2CCCCC(=O)*)N1

Assays:
[1] = test system: ACHN, Caki-1 and Ren-01 cells; test: Immunoblot of p53 targets, kidney cancer cells with PBRM1 shRNA knockdown; format: cell-based; settings: 10 μM Nutlin-3a
Procedure: Lysates were analyzed by immunoblots. c RCC4 cells with or without p53 KO were transfected with vector or Flag-PBRM1 at the indicated amounts. […] Cells were harvested for RT-qPCR (g) or ChIP followed by qPCR (h). […] Representative data is shown in i. Quantification of cell cycle phase is shown in j. Source data are provided as a Source Data file.
After washing with ice-cold PBS, cells were scraped on ice and centrifuged at 10,000 × g for 1 min at 4 °C. For immunoblot analysis, cell pellets were lysed in 1% SDS containing a protease inhibitor cocktail followed by sonication with a FB50 sonic dismembrator (Fisher Scientific) at 20% amplitude for 15 s twice. After centrifuging for 10 min at 14,000 × g, the supernatants were combined with 5X SDS loading buffer (5% mercaptoethanol, 0.05% Bromophenol blue, 30% glycerol, 10% SDS, 250 mM Tris-HCl (pH 6.8)), boiled for 5 min and used in SDS-PAGE. After standard western blot procedures, the blots were developed using the ImageQuant LAS 4000 (GE healthcare Life Sciences) or ChemiDoc MP Imaging System (Bio-rad) with HyGLO™ Chemiluminescent HRP Detection Reagent (E2500, Denville Scientific) or Immobilon™ Western Chemiluminescent HRP Substrate (WBKLS0500, Millipore). […]
the indicated times. Lysates were analyzed via immunoblots. b. […]
were analyzed by immunoblots. c. […]
Lysates were analyzed via immunoblots. e. […]
Lysates were analyzed via immunoblots. f, g, h. […]

BDs of PBRM1 = settings: shorter peptide, residues 375–388, 14 residues; cited from earlier work
Source text: Although acetylation is indispensable for p53′s transcriptional function and SWI/SNF complexes function as transcriptional co-factors, no acetylation-dependent interaction has been reported between p53 and SWI/SNF complexes. In this study, we report that acetylation on p53 lysine 382 enhanced the interaction between PBRM1 and p53 via recognition by PBRM1 BD4. […] The difference is likely due to the length of the peptides used. In our experiments, the p53 peptide used was much longer than theirs (368–393, 26 re ...

endogenous PBRM1 = test: Peptide pull-down, endogenous PBRM1 from cell lysates; format: binding; settings: H1299 lysate, Supplementary Fig. 2e, f
Procedure: Fig. 2 Acetylation on K382 of p53 promotes PBRM1 binding. a Schematic depiction of the functional domains of p53 and truncated constructs. FL full-length, TAD transactivation domain, PRD proline-rich domain, DBD DNA-binding domain, TD tetramerization domain, CTD C-terminal domain. b HEK293T cells were transfected with vectors, Flag-PBRM1, Myc-p53 and Myc-p53 truncated constructs. After immunoprecipitation with Flag-M2 beads, the inputs and eluates were analyzed by immunoblots. c Vectors, Flag-PBRM1, Myc-p53 and HA-Tip60, HA-PCAF, HA-CBP or HA-p300 were transfected into HEK293T cells as indicated. Lysates were used for anti-Flag immunoprecipitation and 3X Flag peptide elution. The inputs and eluates were analyzed by immunoblots. d HEK293T cells were transfected with Flag-PBRM1, Myc-p53 and HA-p300. The amount of HA-p300 was titrated as indicated. Lysates were used in immunoprecipitations with Flag-M2 beads, and inputs and eluates were analyzed by immunoblots. e Vectors, Flag-PBRM1, HA-p300 and Myc-p53 (WT) or Myc-p53 6KR mutant were transfected into HEK293T cells as indicated. Lysates were used for anti-Flag immunoprecipitation and 3X Flag peptide elution. Inputs and eluates were examined by immunoblots. […] The peptides were pulled down with streptavidin beads and the associated proteins were analyzed by immunoblots. […]

PBRM1-p53 interaction = test: Co-immunoprecipitation of Flag-PBRM1 and Myc-p53 (anti-Flag M2) in H1299 cells; format: cell-based
Source text: Fig. 1 PBRM1 and p53 display a physical association that is enhanced after DNA damage. a U2OS cells (left) and HEK293T cells (right) were transfected with vector or Flag-PBRM1 and harvested for immunoprecipitation with Flag-M2 beads and elution with 3X Flag peptide. […] Lysates were subjected to immunoprecipitation with Flag-M2 beads. […] Lysates were immunoprecipitated with p53 antibody. The bound PBRM1 and p53 were examined by immunoblots. Source data are provided as a Source Data file.
For anti-Flag immunoprecipitation, cell pellets harvested from one 10 cm culture dish were resuspended in 500 µl hypotonic buffer (10 mM Tris-HCl, pH 8.0, 1.5 mM MgCl2, 10 mM KCl) with protease and phosphatase inhibitors, 2 μM TSA and 10 mM NAM, and samples were incubated on ice for 15 min. Twenty-five microliters of Triton X-100 was added and samples were vortexed for 10 s. After centrifuging for 30 s at 14,000 × g, supernatants were removed and pellets were resuspended in 100 µl hypertonic buffer (20 mM Tris-HCl pH 8.0, 420 mM KCl, 1.5 mM MgCl2, 20% (v/v) glycerol) with protease and phosphatase inhibitors, 2 μM TSA and 10 mM NAM and vortexed for 10 s. Pellets were incubated on ice for 40 min and vortexed for 15 s every 10 min. After centrifuging for 10 min at 14,000 × g, supernatants were collected and diluted with 300 µl EBC buffer (50 mM Tris-HCl (pH 7.5), 120 mM NaCl, 0.5% NP-40) with protease and phosphatase inhibitors, 2 μM TSA and 10 mM NAM. […] Beads were washed four times with EBC buffer and eluted with 3X Flag peptide (F4799, Sigma-Aldrich) overnight at 4 °C. The input and Flag-elution were analyzed by SDS-PAGE and immunoblot.
Supplementary Figure 2. […]
a. Vectors, Flag-PBRM1 or Myc-p53 were transfected into H1299 cells as indicated, and treated with 5 µM nicotinamide or vehicle. Lysates were used for anti-Flag immunoprecipitation and 3X Flag peptide elution. The inputs and eluates were immunoblotted with the indicated antibodies. […]
Flag-PBRM1, wildtype or K382Q mutated Myc-p53 were transfected into H1299 cells with indicated combinations. Lysates were used for anti-Flagimmunoprecipitation followed by Flag peptide elution. […]

COc1ccc(C2=N[C@@H](c3ccc(Cl)cc3)[C@@H](c3ccc(Cl)cc3)N2C(=O)N2CCNC(=O)C2)c(OC(C)C)c1 [Nutlin-3a]
p21 induction by p53 with PBRM1 knockdown [1]: reduced

p53 K382Ac peptide (375–388): p53 K382Ac peptide of previous report, 375–388, 14 residues (QSTSRHKK(Ac)LMFKTE; not fully specified; UniProt P04637 375-388, looked up, fragment)
binding of PBRM1 BDs to p53 K382Ac peptide (BDs of PBRM1): did not bind

K382Q: Biot-K382Q (368-393) p53 peptide (Biotin-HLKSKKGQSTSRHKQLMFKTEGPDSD; UniProt P04637 368-393, looked up, variant K382Q)
binding to PBRM1 of K382Q peptide (endogenous PBRM1): failed to mimic K382Ac to enhance binding to PBRM1

NC(=O)c1cccnc1 [Nicotinamide]
PBRM1-p53 interaction (PBRM1-p53 interaction; H1299, 5 µM nicotinamide): enhanced

bleomycin
PBRM1 and exogenous p53 protein levels (PBRM1-p53 interaction; H1299, etoposide 50 μM or bleomycin 10 μg/ml): neither the PBRM1 nor the exogenous p53 levels changed | PBRM1-p53 interaction (PBRM1-p53 interaction; H1299 co-transfected with PBRM1 and p53, bleomycin 10 μg/ml): enhanced
